Experimental data: patent US20230257430A1, “RECOMBINANT PROTEINS FOR QUANTIFICATION OF PROTEIN LEVELS” (Genentech, Inc., priority 2020, published 2023)
Peptide text beside a SMILES is read from it. * marks the point of attachment. Cbz = O=C(OCc1ccccc1)*; CH2F = FC*

How the values were obtained:
Assay type in all cases: cell-based, human
[1] = tested on: A549 parental, ARAF KO, BRAF KO, RAF1 (CRAF) KO cancer cells; test: Soft agar colony formation growth assay with pan-RAF inhibitor in RAF-depleted RASK (KRAS) mutant cells; settings: 100 nM, 1 μM, 10 μM
Method: FIG. 4J is a set of photomicrographs showing the results of a soft agar colony formation growth assay for A549 cells (parental) or ARAF knockout (KO), BRAF KO, or RAF1 (CRAF) KO cancer cells treated with the pan-RAF inhibitor AZ-628 at 100 nm, 1 μM, and 10 μM concentrations. Colonies were stained with MTT dye and imaged using a GelCount imager.
FIG. 6G is a set of photomicrographs showing the results of a soft agar colony formation growth assay for the indicated cancer cells treated with non-targeting shRNAs (shNT) or shRNA targeting ARAF (shARAF), BRAF (shBRAF), or RAF1 (CRAF) (shCRAF) and treated with the pan-RAF inhibitor AZ-628 at 100 nm, 1 μM, and 10 μM concentrations or a DMSO control.
It was hypothesized that the ratio of RAF1 (CRAF):ARAF versus RAF1 (CRAF):BRAF heterodimers may be important in the growth of RASK (KRAS) mutant tumors, and that this ratio may impact the efficacy of RAF kinase inhibition. To test this hypothesis, RASK (KRAS) mutant cells depleted of individual members of the RAF kinases (ARAF, BRAF or RAF1 (CRAF)) were treated with a pan-RAF dimer inhibitor (AZ-628). […] Taken together, RAF1 (CRAF) dimerization partners appear to dictate sensitivity to MAPK inhibition.

[2] = tested on: MAPK signaling; test: Western blot analysis of MAPK pathway components in RASK (KRAS) mutant cancer cells; settings: 250 nM, 24 hours
[3] = tested on: ERK downstream substrates (MAPK target gene set); test: mRNA sequencing of MAPK target gene set in RASK (KRAS) mutant cells; settings: RNA-sequencing
Method: FIG. 2E is a graph showing the log 2 fold change in expression of a MAPK target gene set determined by mRNA sequencing in cancer cells treated with shARAF, shBRAF, or shCRAF. Cells were treated with 0.5 μg/mL doxycycline (DOX) for 72 hours. Cells were treated with a MEK inhibitor (GDC-0973) for 6 hours, 250 nM (n=3) or an ERK inhibitor (GDC-0994). Data are normalized to a non-targeting control (shNT) and DMSO (no DOX).
To confirm sustained MAPK activity in spite of RAF1 (CRAF) depletion, we performed a gene expression analysis for the MAPK downstream effectors DUSP6 and SPRTY upon RAF1 (CRAF) depletion in the examined RASK (KRAS) mutant cells lines. […] In order to delineate pathway alterations upon RAF1 (CRAF) depletion versus MAPK inhibition, RNA-sequencing analysis was performed. […] Thus, RAF kinases compensate to sustain MAPK signaling in comparison to MAPK inhibition.

[4] = tested on: RAF1:BRAF heterodimers; test: Immunoprecipitation of FLAG-tagged RAF1 (CRAF) in A549 RAF1 (CRAF) knockout cells; settings: 250 nM, 24 hours
Text: Eluates were co-immunoprecipitated and blotted with the indicated antibodies.
To test whether RAF1 (CRAF) kinase activity is required for RASK (KRAS) mutant tumor cell growth, knockout cell lines of the three RAF isoforms were generated in a RASK (KRAS) mutant background. […] In the RAF1 (CRAF) knockout RASK (KRAS) mutant cells, stable expression of a panel of RAF1 (CRAF) mutants was established. […] Expression of RAF1 (CRAF) kinase-dead mutants including RAF1^D468N, RAF1^D486A, and RAF1^K375M(CRAF^D468N, CRAF^D486A, and CRAF^K375M) reduced pERK levels compared to cells expressing RAF1^wild-type (CRAF^wild-type) or RAF1^S259A (CRAF^S259A), a mutation which renders the RAF1 (CRAF) kinase constitutively active (FIG. 5C). RAF1 (CRAF) kinase-dead mutants either partially (RAF1^D468N (CRAF^D468N), RAF1^D486A(CRAF^D486A)) or fully (RAF1^K375M (CRAF^K375M)) rescued colony growth in RAF1 (CRAF)-deficient RASK (KRAS) mutant cells (FIGS. 4B and 5D). […] Functionally, the CRAF^K375M mutation completely abrogated MEK phosphorylation compared to CRAF^wild-type, but still rescued colony growth in RAF1-deficient RASK (KRAS) mutant cells (FIGS. 4C and 5C). […] Consistent with this, RAF1 (CRAF) kinase-dead mutants behaved like the RAF1 (CRAF) knockout, and were unable to rescue cell growth inhibition in the presence of MEK inhibitor compared to the cells expressing CRAF^wild-type (FIGS. 5E and 5F). […]

[5] = tested on: CRAF:BRAF and CRAF:ARAF dimers; test: PIKES targeted analysis (PRM-MS) of immunoprecipitated FLAG-tagged CRAF wild-type; settings: 250 nM, 24 hours
Text: Collected eluates were then combined with 100 fmol of QconCAT reagent and samples were processed similarly to the cell line analysis above for PRM analysis. For PRM analysis, RAW files were loaded onto Skyline (v19.1). A target peptide list was generated from the QconCAT peptides for both unlabeled and heavy-labeled peptides with transition setting filtered for precursor charges 2 and 3, ion charges 1 and 2, and y-ion types. Selected peaks from product ions were reviewed manually. Both MS1 and MS/MS filtering were set to Orbitrap mass analyzer with 60,000 resolving power. Signal was summed for the top three product ions and normalized to the heavy labeled QconCAT internal standard for peptide quantification.

[6] = tested on: A549 RAF1 (CRAF) knockout (CRAF KO) cancer cells; test: Soft-agar colony formation assay in A549 RAF1 (CRAF) knockout cells with MEK or ERK inhibitor dose titration; settings: for cell survival of RAF1 (CRAF)-depleted cells: increasing the dose; for cell survival of RAF1 (CRAF) ablated RASK (KRAS) mutant cells: low-dose treatment
Text: FIG. 11F is a set of photomicrographs showing the results of a soft-agar colony formation assay in A549 parental and RAF1 (CRAF) knockout (CRAF KO) cancer cells upon treatment with DMSO or a MEK inhibitor (GDC-0973) at the indicated dose titrations. The colonies were labeled with MTT reagent and imaged using a GelCount imager.
FIG. 11G is a set of photomicrographs showing the results of a soft-agar colony formation assay in A549 parental and RAF1 (CRAF) knockout (CRAF KO) cancer cells upon treatment with DMSO or an ERK inhibitor (GDC-0994) at the indicated dose titrations. The colonies were labeled with MTT reagent and imaged using a GelCount imager.
Within the MAPK pathway, expression of BRAF^D631A mutation upon BRAF^wild-type loss induces cellular toxicity which impedes tumor development of RASK (KRAS) mutant lung tumors (Nieto et al., Nature, 548: 239-243, 2017; Yao et al., Nature, 548: 234-238, 2017). Importantly, pharmacological inhibition of ERK rescued tumor growth in this context (Nieto et al., Nature, 548: 239-243, 2017; Yao et al., Nature, 548: 234-238, 2017). […] Thus, oncogenic cellular stress induced by ARAF catalytic activity could be inhibited by low-dose MAPK inhibition, thereby promoting survival of RASK (KRAS) mutant cells.

[7] = tested on: A549 cancer cells depleted of RAF1 (CRAF); test: Soft-agar colony formation assay in A549 cells treated with shCRAF and co-treated with cell death inhibitors; settings: single agent; ZVAD-FMK 20 μM, NEC1 30 μM, Bafilomycin 50 nM
Method: FIG. 12G is a set of photomicrographs showing the results of a soft-agar colony formation assay in A549 cancer cells upon treatment with shCRAF and co-treatment with the indicated inhibitors. […] Cells were co-treated with DMSO or inhibitors for cellular apoptosis (ZVAD-FMK, 20 μM), necroptosis (NEC1, 30 μM) or a combination of both (ZVAD-FMK, 10 μM; NEC1, 10 μM) and an autophagy inhibitor (Bafilomycin, 50 nM).
As ARAF catalytic function inhibits cell growth upon RAF1 (CRAF) loss, mechanisms by which ARAF limits growth of RASK (KRAS) mutant cells were investigated. Given that MAPK inhibition is associated with induction of cellular apoptosis (Yen et al., Cancer Cell, 34: 611-625, 2018), it was hypothesized that RAF1 (CRAF) ablation induces cell death, similar to MAPK inhibition in RASK (KRAS) mutants. […] Additionally, RAF1 (CRAF) ablation in a […] isogenic RASK (KRAS) mutant cell line (HCT116 p21^−/−) rescued cell growth inhibition mediated upon RAF1 (CRAF) loss (FIG. 12A). […] A chemical inhibitor approach was adopted to test whether cell growth inhibition upon RAF1 (CRAF) loss could be rescued by the treatment with apoptosis or autophagic inhibitors. […] Finally, a Gene Set Enrichment Analysis (GSEA) of targets involved in the apoptosis pathway was performed, but no significant enrichment of any apoptosis target gene set was observed upon acute depletion of ARAF, BRAF or RAF1 (CRAF) (FIG. 12I). […] Thus, RAF1 (CRAF) depletion promotes p21-mediated cell cycle arrest in RASK (KRAS) mutant cancer cells. Further, co-depletion of RAF1 (CRAF) and ARAF in RASK (KRAS) mutant cells abrogated the expression levels of p21 (FIG. 4E).

For `Cc1ccc(NC(=O)c2cccc(C(C)(C)C#N)c2)cc1Nc1ccc2ncn(C)c(=O)c2c1` [AZ-628], the “sensitivity of colony growth to RAF dimer inhibition” value ([1]; ARAF ablation in RASK (KRAS) mutant cells) was “sensitized cells to RAF dimer inhibition” and the “sensitivity of colony growth to RAF dimer inhibition” value ([1]; BRAF ablation in RASK (KRAS) mutant cells) was “less sensitive to RAF dimer inhibition”.
For `O=C(c1ccc(F)c(F)c1Nc1ccc(I)cc1F)N1CC(O)([C@@H]2CCCCN2)C1` [GDC-0973], the “effect on MAPK signaling (pMEK, pERK Western blot)” value [2] was “suppresses MAPK signaling”, the “effect on expression of ERK downstream substrates (MAPK target gene set)” value [3] was “induced suppression of ERK downstream substrates” and the “RAF heterodimers co-immunoprecipitated with FLAG-CRAF” value [4] was “enriched for RAF1:BRAF heterodimers”. For the same compound, the “preferential RAF dimer association of CRAF wild-type (PIKES)” value [5] was “promoted increased CRAF: BRAF dimers in comparison to CRAF: ARAF dimers”, the “cell survival of RAF1 (CRAF)-depleted cells” value [6] was “limited cell survival” and the “cell survival of RAF1 (CRAF) ablated RASK (KRAS) mutant cells” value [6] was “promoted cell survival”.
In the case of `Cn1nccc1Nc1nccc(-c2ccn([C@H](CO)c3ccc(Cl)c(F)c3)c(=O)c2)n1` [GDC-0994], the “effect on expression of ERK downstream substrates (MAPK target gene set)” value [3] is reported as “induced suppression of ERK downstream substrates”, the “cell survival of RAF1 (CRAF)-depleted cells” value [6] is reported as “limited cell survival” and the “cell survival of RAF1 (CRAF) ablated RASK (KRAS) mutant cells” value [6] is reported as “promoted cell survival”.
`CN1C(=O)C(Cc2c[nH]c3ccccc23)NC1=S` (centres unmarked) [NEC1] was tested, and the “rescue of cell growth in RAF1 (CRAF)-depleted RASK (KRAS) mutant cells” value (from here on “rescue of cell growth in RAF1”) [7] was “did not rescue cell growth”.
With `COC(=O)C[C@H](NC(=O)[C@H](C)NC(=O)[C@@H](NC(=O)OCc1ccccc1)C(C)C)C(=O)CF` [Z-VAD-FMK] (Cbz-Val-Ala-Asp(OMe)-CH2F) the “rescue of cell growth in RAF1” value [7] was “did not rescue cell growth”.
`CO/C1=C\C(C)=C\[C@@H](C)[C@@H](O)[C@@H](C)C/C(C)=C/C=C/[C@H](OC)[C@@H]([C@@H](C)[C@@H](O)[C@H](C)[C@@]2(O)C[C@@H](O)[C@H](C)[C@@H](C(C)C)O2)OC1=O` [bafilomycin] was tested, and the “rescue of cell growth in RAF1” value [7] was “did not rescue cell growth”.
